{"source": "patent US10202421B2", "about": "“Tumor-targeting compounds” (SKU Asset Management GmbH, priority 2009, dated 2019)", "key": {"granulocytes": {"test_system": "granulocytes", "assay": "Chemotaxis assay (trans-well assay for macrophage mobilization)", "format": "cell-based", "text": "Concentration-dependent granulocyte activation of N-formyl peptide conjugates has been compared with activation of the peptide only. Each series of experiments has been repeated 3 times with 200,000 granulocytes each. […] Therefore, variations in the formyl peptide amino acid composition, e.g. different amino acid residues at position 3 (phenylalanine, proline) as in structure 1 and structure 2, provide a further means to tune the immune response."}, "Solubility at pH 7": {"assay": "Solubility at pH 7", "format": "physicochemical", "text": "(§1) The peptide SEQ ID NO 1, […] showing specific binding activity to the tumor marker Erb-B1/EGFR was chosen as binder and the macrophage-activating peptide formyl-MLP as effector to synthesize structure 1. The structure was synthesized chemically by standard methods known in the art and purified by ion exchange chromatography. Chemical identity was verified by mass spectrometry."}, "[1]": {"assay": "Size exclusion chromatography and dynamic light scattering analysis", "format": "physicochemical", "conditions": "size exclusion chromatography, dynamic light scattering", "text": "as §1"}, "human EGFR/Erb-B1": {"molecular_target": "T1, human EGFR/Erb-B1 (Homo sapiens, UniProt P00533)", "T1 construct": "purchased", "assay": "Fluorescence spectroscopy binding/displacement test with NBD-labelled 12mer tracer and EGFR"}}, "note": "No end group written: not given here. *: point of attachment. For = O=C*"}
{"compound": "N-formyl-Met-Leu-Phe (For-Met-Leu-Phe) [fMLF]", "values": [{"measurement": "stimulation of granulocyte chemotaxis", "setting": "granulocytes; separate experiment", "value": "can be stimulated"}, {"measurement": "chemotactic response compared to fMLP", "setting": "granulocytes; separate experiment, granulocytes", "value": "slightly higher"}]}
{"compound": "CC[C@H](C)[C@H](NC(=O)[C@@H](NC(=O)[C@H](CC(N)=O)NC(=O)[C@H](CCC(N)=O)NC(=O)[C@@H]1CCCN1C(=O)[C@@H](NC(=O)[C@H](Cc1ccc(O)cc1)NC(=O)CNC(=O)[C@H](Cc1ccc(O)cc1)NC(=O)[C@H](Cc1c[nH]c2ccccc12)NC(=O)[C@H](Cc1c[nH]cn1)NC(=O)[C@@H](N)Cc1ccc(O)cc1)[C@@H](C)O)C(C)C)C(=O)NCCOCCOCCOCCOCCOCCOCCOCCOCCOCCOCCOCCOCCOCCOCCOCCOCCOCCOCCOCCOCCOCCOCCOCCOCCOCCOCCOCCOCCC(=O)NCCCC[C@H](NC(=O)[C@H](CCCCNC(=O)CCOCCOCCOCCOCCOCCOCCOCCOCCOCCOCCOCCOCCOCCOCCOCCOCCOCCOCCOCCOCCOCCOCCOCCOCCOCCOCCOCCOCCNC(=O)[C@@H](NC(=O)[C@@H](NC(=O)[C@H](CC(N)=O)NC(=O)[C@H](CCC(N)=O)NC(=O)[C@@H]1CCCN1C(=O)[C@@H](NC(=O)[C@H](Cc1ccc(O)cc1)NC(=O)CNC(=O)[C@H](Cc1ccc(O)cc1)NC(=O)[C@H](Cc1c[nH]c2ccccc12)NC(=O)[C@H](Cc1c[nH]cn1)NC(=O)[C@@H](N)Cc1ccc(O)cc1)[C@@H](C)O)C(C)C)[C@@H](C)CC)NC(=O)[C@@H]1CCCN1C(=O)[C@H](CC(C)C)NC(=O)[C@H](CCSC)NC=O)C(=O)O", "note": "[structure 1]", "values": [{"measurement": "solubility", "setting": "Solubility at pH 7", "value": "≤ 10000", "unit": "µg/mL"}, {"measurement": "oligomers or large aggregates", "setting": "[1]", "value": "no oligomers or large aggregates"}, {"measurement": "displacement of fluorescent tracer peptide from EGFR complex", "setting": "human EGFR/Erb-B1; 1 µM EGFR/NBD-12mer complex titrated with increasing concentrations (FIG. 5d)", "value": "displacement of the fluorescent tracer"}, {"measurement": "KD value for the interaction with EGFR", "setting": "human EGFR/Erb-B1; displacement of fluorescently labelled 12mer from EGFR complex, estimated", "value": "low nM range"}, {"measurement": "macrophage activation profile", "setting": "granulocytes; trans-well assay", "value": "demonstrated"}]}
{"compound": "N-formyl-Met-Leu-Pro (For-Met-Leu-Pro) [fMLP]", "values": [{"measurement": "stimulation of granulocyte chemotaxis", "setting": "granulocytes; separate experiment", "value": "can be stimulated"}]}
{"compound": "YHWYGYTPQNVI [unlabelled peptide, reference compound]", "values": [{"measurement": "displacement of fluorescent tracer peptide from EGFR complex (fluorescence intensity)", "setting": "human EGFR/Erb-B1; EGFR-tracer complex 50 nM, PBS pH 7.5, 10 fold excess of unlabelled peptide (FIG. 5c)", "value": "decrease in fluorescence intensity"}]}
